Measured values from patent publication US20040192905A1, “Polymerizable monomers and process of preparation thereof” (priority 2003, published 2004).

Tests used:
[1] = target: T1, lysozyme (Gallus gallus, UniProt P00698); assay: Estimation of relative inhibition of lysozyme (Micrococcus lysodeikticus substrate, absorbance at 450 nm); type: biochemical; conditions: for 1max: ligand concentration at Imax; for Imax: maximum relative inhibition of lysozyme; for IC50: phosphate buffer pH 6.2, 20 C, Micrococcus lysodeikticus substrate, read-out: I50
Experimental: This example describes the estimation of inhibition of lysozyme by monomers Micrococcus lysodeikticus is a substrate for the enzyme lysozyme. Relative binding of monomers and monomers linked to NAG through the spacer arm was estimated by using a procedure reported by Neuberger and Wilson (1967).
1 5% w/v stock solutions of monomeric ligands was prepared in […] phosphate buffer pH 6.2 containing 0.01 54 m sodium chloride and 0.008 M sodium azide. One milliliter of stock solution containing different ligand concentration was mixed with 1.6 ml of 78 Jig/ml of Micrococcus lysodeikticus in a 3-ml capacity glass cuvette. The mixture was incubated for 5 minutes at 20 0 C. To this mixture 0.1 ml of lysozyme (27 μg/ml) was added and mixed thoroughly. The relative absorbance at 450 nm (Δ450) was recorded for 30 seconds. A blank reading without the ligand was noted and the change in the absorbance per second was calculated. Then relative inhibition was calculated

[2] = target: T1, lysozyme; assay: Estimation of binding constant (Kb) by fluorescence spectrophotometric method; conditions: relative to NAG
Experimental: Estimation of binding constant (Kb) of monomers containing NAG by fluorescence spectrophotometric method and the enhancement resulting from conjugation with monomers and monomer containing spacer.
Fluorescence spectra of lysozyme were recorded on a Perkin Elmer LS-50 B luminescence spectrophotometer. Excitation frequency was 285 nm, Solutions of lysozyme and N-Acetyl Glucosamine were prepared in 0.066 M phosphate buffer pH 6.2, containing 0.0154 M sodium chloride and 0.008 M sodium azide. 0 1 milliliter of lysozyme 80 μg/ml was mixed with solution containing different ligand concentration in a 2 ml capacity 10 mm square quartz cells maintained at 18 0 C.
Phosphate buffer was added to make the volume to 2 ml. The fluorescence intensities of the solutions were measured, relative to the solutions containing enzymes and buffer mixtures of the identical concentrations reference. […]

T1 sequence (P00698 19-147): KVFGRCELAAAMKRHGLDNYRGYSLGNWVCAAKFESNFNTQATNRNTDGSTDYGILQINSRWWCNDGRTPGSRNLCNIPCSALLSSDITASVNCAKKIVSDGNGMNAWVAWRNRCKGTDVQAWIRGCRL

Compound | 1max [1] [mM] | Imax [1] | IC50 [1] [mM] | increase in binding constant compared to N-Acetyl Glucosamine [2] [times]
C=CC(=O)OC[C@H]1OC(O)[C@H](NC(C)=O)[C@@H](O)[C@@H]1O (stereo partly shown) [Ac. NAG, Acryloyl N-Acetyl Glacosamine] | 14.81 | 50.00 | 14.8 | 74
Acryloyl 6-Amino Caproic Acid N-Acetyl Glucosamine [Ac 6ACA.NAG] | 0.036 | 52.5 | 0.035 | –
CC(=O)N[C@H]1C(O)O[C@H](CO)[C@@H](O)[C@@H]1O (stereo partly shown) [NAG, N-Acetyl Glucosamine, reference compound] | 92.5 | 55.29 | 74 | –
